Here are results for one compound from US11013740B2, “Histone deacetylase 6 selective inhibitors for the treatment of cisplatin-induced peripheral neuropathy” (REGENACY PHARMACEUTICALS, LLC, priority 2015, dated 2021).

Molecules are shown by their SMILES.

For assay [1], the system named is mitochondrial respiration in tibial nerves. Nature of the assay: Mitochondrial bioenergetics analysis of tibial nerves (XF24). The class given is in vivo, mice. As to the method: Tibial nerves were collected on experimental day 30, when the mice have received 2 rounds of cisplatin treatment and 11 injections of compound 001. Tissues were placed into islet capture XF24 microplate (Seahorse Bioscience, North Billerica, Mass.) in XF media with the addition of 5.5 mM glucose, 0.5 mM sodium pyruvate and 1 mM glutamine. Oligomycin (12 μM), FCCP (Carbonyl cyanide 4-(trifluoromethoxy)phenylhydrazone, 20 μM), and Rotenone/Antimycin A (20 μM each) (Sigma-Aldrich, St. Louis, Mo.) were injected sequentially during the assay. An assay cycle with a combination of 3-min mix, 3-min wait, and 4-min measure was repeated 4 times for baseline rates and after each port injection. After the respiratory measures, tissues were harvested and the oxygen consumption rate (OCR) values were normalized to the total protein content of each well. Basal respiration, ATP-linked respiration, proton leak, and maximal respiratory capacity were determined as described previously (Brand M D, and Nicholls D G. Assessing mitochondrial dysfunction in cells. The Biochemical journal. 2011; 435(2):297-312; Ma J, et al. Heat shock protein 70 is necessary to improve mitochondrial bioenergetics and reverse diabetic sensory neuropathy following KU-32 therapy. The Journal of pharmacology and experimental therapeutics. 2014; 348(2):281-92). Briefly, the initial measurements provide a measure of the basal OCR in the absence of respiratory chain poisons. The amount of basal OCR that is coupled to ATP production was determined by addition of the ATP synthase inhibitor oligomycin, which decreased the basal OCR. […] Next, maximal respiratory capacity (MRC) was assessed by addition of the protonophore FCCP, which dissipates the mitochondrial membrane potential and promotes maximal OCR. Lastly, non-mitochondrial respiration was determined by the addition of rotenone and antimycin A, which inhibit the activities of mitochondrial respiratory chain complex I and complex III respectively.

Assay [2] concerns rat DRG neurons. In words: Mitochondrial movement in cultured DRG neurons. In kind it is cell-based. As to conditions: 100 nM co-administered with cisplatin, 3 hours. As to the method: DRG neurons (Lonza) were cultured for 5-7 days before the mitochondrial transport assay. 24 hrs prior to chemotherapy treatment cells were infected with Bacmam 2.0, which labeled mitochondria with GFP. Cells were treated with cisplatin (20-80 μM)+/−compound 001 (100 nM) for 3 hours. Imaging was performed using Zeiss 3i system. Time lapse images were acquired every 2 seconds over the course of 2 min. Image analysis was performed using Fiji and Multiple Kymograph plugin.

Setting [3] is: 2 rounds of cisplatin and 11 injections of compound.

Turning to `O=C(NO)c1cnc(NC2(c3ccccc3)CCC(F)(F)CC2)nc1` [compound 001], in assay [1] (setting [3]), the “mitochondrial respiration (basal, ATP-linked, proton leak, maximal) in tibial nerves” value is “normalized all aspects of the cisplatin-induced decrease in mitochondrial respiration” and the “non-mitochondrial respiration in tibial nerves” value is listed as “not altered”. Besides, the “mitochondrial bioenergetics, compound alone” value in assay [1] (without cisplatin) is “did not have any effect on mitochondrial bioenergetics”. Moreover, the “percentage of moving mitochondria in axons (mitochondrial transport)” value in assay [2] was “prevented this cisplatin-induced decrease in mitochondrial transport”.
